{
  "source": "patent US7776854B2",
  "about": "“Benzazole derivatives for the treatment of scleroderma” (Merck Serono SA, priority 2001, dated 2010)",
  "key": {"[1]": {"system": "bleomycin-induced lung fibrosis", "assay": "Determination of bleomycin-induced body weight loss", "format": "in vivo", "conditions": "C57BL/6 mice", "description": "The objective of the present Assay is to determine the loss of body weight of mice which is usually triggered by bleomycin-induced lung fibrosis.\n(§1) Female 10- to 12-week-old C57BL/6 wild-type mice were intratracheally instilled with bleomycin (3.75 U/kg) dissolved in 10 μl saline to induce the fibrosis in the lungs. The treatment with a test compound started on day 0 and was continued daily—from day 0 (1 hour before the bleomycin instillation) to day 17. The test compound was administered orally at different dosages. Control mice were intratracheally instilled with saline on day 0. The body weight loss was recorded on a daily basis and the results of the determination are graphically represented in FIG. 1."}, "[2]": {"system": "bleomycin-induced lung fibrosis", "assay": "Determination of bleomycin-induced lung collagen content (hydroxyproline)", "format": "in vivo, mice", "conditions": "7 mg/kg orally, day 17, p=0.009", "description": "as §1\nThe objective of the present assay is to determine the reduction in lung fibrosis by specifically measuring the hydroxyproline content in the lungs of bleomycin-treated mice. Hydroxyproline is an amino acid component necessary for the build-up of collagen. The quantification of hydroxyproline in the lung after collagen hydrolysis is therefore seen as a suitable indicator for lung collagen content.\nMice were treated as described in Example 2. At day 17 of instillation, the animals were euthanized, and both lungs were removed. Total lung collagen was determined by analysis of hydroxyproline. Briefly, lungs were homogenized in Tris-HCl, pH 7.6, with a Tissue Tearor followed by incubation in Amberlite overnight at 115° C. […] Samples were cooled for 10 min and read at 560 nm on spectrophotometer. […]"}, "[3]": {"system": "bleomycin-induced lung fibrosis", "assay": "Determination of bleomycin-induced pulmonary fibrosis (histological scoring)", "format": "in vivo, mice", "description": "as §1\nInjection of bleomycin in mice induces focal fibrotic lesions with thickened intra-alveolar septa, collapse of alveolar septa as well as massive infiltration of lymphocytes into the lung interstitium. Such focal fibrotic lesions are histologically determined on day 17 after bleomycin administration.\nMice were treated as described in Example 2. […] Morphological evaluation of bleomycin-induced lung inflammation and fibrosis was performed using a semiquantitative scoring method consisting in a visual evaluation of histological section photos in which the surface of the fibrotic part of the lung is evaluated compared to the total surface. […]"}, "[4]": {"system": "bleomycin-induced lung inflammation", "assay": "Determination of bleomycin-induced pulmonary oedema (lung wet/dry weight difference)", "format": "in vivo, mice", "description": "as §1\nLung fibrotic changes following instillation of bleomycin result from the infiltration of inflammatory cells like macrophages, lymphocytes and neutrophils into the lungs a well as an increase in pro-inflammatory cytokines such as TNFα. The pulmonary oedema is analyzed to determine whether a test compound affects the bleomycin-induced lung inflammation. What is determined is the difference wet/dry of the examined lungs, where high differences indicate a high degree of pulmonary oedema.\nMice were treated as described in Example 2. The test compound was compound (A) (i.e. 1,3-benzothiazol-2-yl(2-{[4-(morpholin-4-ylmethyl)benzyl]-oxy}pyrimidin-4-yl)aceto-nitrile). […] The lung dry and wet weight differences were calculated and graphically reported in FIG. 2. which illustrates the outcome of the assay for the test compound (A)."}},
  "data": [
    {"smiles": "N#CC(c1ccnc(OCc2ccc(CN3CCOCC3)cc2)n1)c1nc2ccccc2s1", "note": "(stereo not shown) [test compound (A), 1,3-benzothiazol-2-yl(2-{[4-(morpholin-4-ylmethyl)benzyl]-oxy}pyrimidin-4-yl)acetonitrile]", "values": [
      {"measurement": "reduction of the loss of body weight induced by bleomycin", "setting": "[1]; 2 mg/kg orally daily, day 17", "value": "about 30%"},
      {"measurement": "body weight course", "setting": "[1]; bleomycin instilled, oral daily treatment, day 5 to day 17, versus saline-treated mice", "value": "stabilization of their body weight"},
      {"measurement": "lung hydroxyproline content compared with saline-treated mice", "setting": "[2]", "value": "significantly lower"},
      {"measurement": "bleomycin-induced lung fibrosis, histological scoring of fibrotic lesions compared with saline-treated mice", "setting": "[3]; 7 mg/kg orally, day 17, p=0.016", "value": "significantly reduced"},
      {"measurement": "bleomycin-induced lung fibrosis, histological scoring of fibrotic lesions compared with saline-treated mice", "setting": "[3]; 20 mg/kg orally, day 17, p=0.009", "value": "significantly reduced"},
      {"measurement": "pulmonary oedema (lung wet/dry weight difference) compared with saline-treated mice", "setting": "[4]; 2 mg/kg orally, day 17, p=0.016", "value": "significant reduction"},
      {"measurement": "pulmonary oedema (lung wet/dry weight difference) compared with saline-treated mice", "setting": "[4]; 7 mg/kg orally, day 17, p=0.009", "value": "significant reduction"}
    ]}
  ]
}
